In publication PMC7411887, “New Paracyclophanylthiazoles with Anti-Leukemia Activity: Design, Synthesis, Molecular Docking, and Mechanistic Studies” (Molecules, 2020):
Like-named read-outs stand apart in the source and are kept apart here.

Legend:
HL-60(TB) = test: NCI five-dose assay; type: cell-based; conditions: Leukemia HL-60(TB)
HOP-92 = test: NCI five-dose assay; type: cell-based; conditions: Non-Small-Cell Lung Cancer HOP-92
NCI-H23 = test: NCI five-dose assay; type: cell-based; conditions: Non-Small-Cell Lung Cancer NCI-H23
NCI-H460 = test: NCI five-dose assay; type: cell-based; conditions: Non-Small-Cell Lung Cancer NCI-H460
NCI-H522 = test: NCI five-dose assay; type: cell-based; conditions: Non-Small-Cell Lung Cancer NCI-H522
HT29 = test: NCI five-dose assay; type: cell-based; conditions: Colon Cancer HT29
KM12 = test: NCI five-dose assay; type: cell-based; conditions: Colon Cancer KM12
U251 = test: NCI five-dose assay; type: cell-based; conditions: CNS Cancer U251
LOX IMVI = test: NCI five-dose assay; type: cell-based; conditions: Homo sapiens, Melanoma LOX IMVI
M14 = test: NCI five-dose assay; type: cell-based; conditions: Homo sapiens, Melanoma M14
MDA-MB-435 = test: NCI five-dose assay; type: cell-based; conditions: Homo sapiens, Melanoma MDA-MB-435
OVCAR-4 = test: NCI five-dose assay; type: cell-based, human; conditions: Ovarian Cancer OVCAR-4
OVCAR-5 = test: NCI five-dose assay; type: cell-based; conditions: Ovarian Cancer OVCAR-5
SN12C = test: NCI five-dose assay; type: cell-based; conditions: Renal Cancer SN12C
MCF7 = test: NCI five-dose assay; type: cell-based, human; conditions: Breast Cancer MCF7
HS 578T = test: NCI five-dose assay; type: cell-based; conditions: Breast Cancer HS 578T
BT-549 = test: NCI five-dose assay; type: cell-based, human; conditions: Breast Cancer BT-549
Breast Cancer subpanel = test: NCI five-dose assay, subpanel; type: cell-based, human; conditions: for GI50: Homo sapiens
Experimental: (§1) The outcomes were used to form log concentration vs. percentage growth inhibition curves and three response parameters (GI50, total growth inhibition (TGI), and LC50) were calculated for each cell line (Table 2).
(§2) The criterion for selectivity of a compound depends upon the ratio obtained by dividing the full-panel MID (the average sensitivity of all cell lines toward the test agent) (μM) by the individual subpanel MIDs (μM).

CNS Cancer subpanel = test: NCI five-dose assay, subpanel; type: cell-based, human
Experimental: as §1, §2

Colon Cancer subpanel = test: NCI five-dose assay, subpanel; type: cell-based, human; conditions: for GI50: Homo sapiens
Experimental: as §1, §2

Leukemia subpanel = test: NCI five-dose assay, subpanel; type: cell-based, human; conditions: for GI50: Homo sapiens
Experimental: as §1, §2

Melanoma subpanel = test: NCI five-dose assay, subpanel; type: cell-based, human
Experimental: as §1, §2

[1] = system: Non-Small-Cell Lung Cancer subpanel; test: NCI five-dose assay, subpanel; type: cell-based, human
Experimental: as §1, §2

Ovarian Cancer subpanel = test: NCI five-dose assay, subpanel; type: cell-based, human; conditions: for GI50: Homo sapiens
Experimental: as §1, §2

Prostate Cancer subpanel = test: NCI five-dose assay, subpanel; type: cell-based, human
Experimental: as §1, §2

Renal Cancer subpanel = test: NCI five-dose assay, subpanel; type: cell-based, human
Experimental: as §1, §2

OVCAR-3 = test: NCI five-dose assay
[2] = Homo sapiens, read-out: GI50 Concentration/Cell Line
[3] = Homo sapiens, read-out: LC50 (the source's name)
[4] = read-out: GI50 Concentration/Cell Line
[5] = Non-Small-Cell Lung Cancer subpanel

In the case of COC(=O)C=C1SC(=NNC(=O)c2cc3ccc2CCc2ccc(cc2)CC3)N(c2ccccc2)C1=O [Compound 3a], the GI50 (HL-60(TB); [2]) is reported as 2.7 µM, the CC50 (HL-60(TB); [3]) is reported as > 100 µM and the “TGI Concentration/Cell Line” value (HL-60(TB)) is reported as >100 µM. For the same compound, the GI50 (HOP-92; [2]) was 1.91 µM, the CC50 (HOP-92; [3]) was > 100 µM and the “TGI Concentration/Cell Line” value (HOP-92) was 9.14 µM. The LC50 (NCI lethal concentration, 50% cell kill) (NCI-H23; Homo sapiens) was 8.85 µM, the GI50 (NCI-H23; [2]) was 1.95 µM and the “TGI Concentration/Cell Line” value (NCI-H23) was 4.15 µM. The LC50 (50% lethal concentration) (NCI-H460; Homo sapiens) was 8.82 µM, the GI50 (NCI-H460; [2]) was 2.08 µM and the “TGI Concentration/Cell Line” value (NCI-H460) was 4.29 µM. The LC50 (NCI-H522; Homo sapiens) was > 100 µM, the GI50 (NCI-H522; [2]) was 4.89 µM and the “TGI Concentration/Cell Line” value (NCI-H522) was >100 µM. For the same compound, the “TGI Concentration/Cell Line” value (HT29) was 4.07 µM, the LC50 (HT29; Homo sapiens, HT-29) was 8.56 µM and the GI50 (HT29; Homo sapiens, HT-29, read-out: GI50 Concentration/Cell Line) was 1.93 µM. The “TGI Concentration/Cell Line” value (KM12) was 4.15 µM, the GI50 (KM12; [2]) was 2.03 µM and the CC50 (KM12; [3]) was 8.51 µM. The “TGI Concentration/Cell Line” value (U251) was 4.00 µM, the GI50 (U251; Homo sapiens, U-251, read-out: GI50 Concentration/Cell Line) was 1.89 µM and the CC50 (U251; Homo sapiens, U-251, read-out: LC50 (the source's name)) was 8.47 µM. The LC50 (concentration killing 50% of cells) (LOX IMVI) was 6.75 µM, the GI50 (LOX IMVI; [4]) was 1.69 µM and the LC50 (M14) was > 100 µM. The GI50 (M14; [4]) was 3.27 µM, the LC50 (concentration causing 50% net cell kill) (MDA-MB-435) was > 100 µM and the GI50 (MDA-MB-435; [4]) was 5.44 µM. For the same compound, the GI50 (OVCAR-4; [2]) was 3.17 µM, the “TGI Concentration/Cell Line” value (OVCAR-4) was 9.88 µM and the LC50 (50% lethal concentration) (OVCAR-5; Homo sapiens) was 7.68 µM. For the same compound, the GI50 (OVCAR-5; [2]) was 1.92 µM, the “TGI Concentration/Cell Line” value (OVCAR-5) was 3.84 µM and the LC50 (SN12C; Homo sapiens) was > 100 µM. For the same compound, the GI50 (SN12C; [2]) was 2.27 µM, the “TGI Concentration/Cell Line” value (SN12C) was 5.94 µM and the “TGI Concentration/Cell Line” value (MCF7) was 4.95 µM. For the same compound, the GI50 (MCF7; [2]) was 1.87 µM, the “TGI Concentration/Cell Line” value (HS 578T) was >100 µM and the GI50 (HS 578T; [2]) was 3.49 µM. The CC50 (HS 578T; [3]) was > 100 µM, the “TGI Concentration/Cell Line” value (BT-549) was 5.35 µM and the GI50 (BT-549; [2]) was 2.22 µM. The “GI50 Selectivity Ratio (MID^a: MID^b)” value (Breast Cancer subpanel; Breast Cancer subpanel) was 1.05, the “TGI Selectivity Ratio (MID^c: MID^d)” value (Breast Cancer subpanel; Breast Cancer subpanel) was 0.87 and the TGI Subpanel MID^d (Breast Cancer subpanel; Breast Cancer subpanel average) was 24.3 µM. The GI50 (Breast Cancer subpanel; Breast Cancer subpanel average, read-out: GI50 Subpanel MID^b) was 2.27 µM, the GI50 (Breast Cancer subpanel; breast cancer subpanel, read-out: GI50 values range, subpanel) was 1.54 to 1.87 µM and the “GI50 Selectivity Ratio (MID^a: MID^b)” value (CNS Cancer subpanel; CNS Cancer subpanel) was 0.88. For the same compound, the “TGI Selectivity Ratio (MID^c: MID^d)” value (CNS Cancer subpanel; CNS Cancer subpanel) was 1.08, the TGI Subpanel MID^d (CNS Cancer subpanel; CNS Cancer subpanel average) was 19.5 µM and the GI50 (CNS Cancer subpanel; Homo sapiens, CNS Cancer subpanel average, read-out: GI50 Subpanel MID^b) was 2.71 µM. For the same compound, the “GI50 Selectivity Ratio (MID^a: MID^b)” value (Colon Cancer subpanel; Colon Cancer subpanel) was 1.24, the “TGI Selectivity Ratio (MID^c: MID^d)” value (Colon Cancer subpanel; Colon Cancer subpanel) was 5.34 and the TGI Subpanel MID^d (Colon Cancer subpanel; Colon Cancer subpanel average) was 3.95 µM. The GI50 (Colon Cancer subpanel; Colon Cancer subpanel average, read-out: GI50 Subpanel MID^b) was 1.91 µM, the GI50 (Colon Cancer subpanel; colon cancer subpanel, read-out: GI50 values range, subpanel) was 1.78 to 2.13 µM and the GI50 (Leukemia subpanel; Leukemia subpanel average, read-out: GI50 Subpanel MID^b) was 2.72 µM. For the same compound, the GI50 (Leukemia subpanel; leukemia subpanel, read-out: GI50 values range, subpanel) was 2.15 to 3.15 µM, the “GI50 Selectivity Ratio (MID^a: MID^b)” value (Leukemia subpanel; Leukemia subpanel) was 0.88 and the TGI Subpanel MID^d (Leukemia subpanel; Leukemia subpanel average) was 81.1 µM. For the same compound, the GI50 (Melanoma subpanel; Homo sapiens, Melanoma subpanel average, read-out: GI50 Subpanel MID^b) was 3.77 µM, the “GI50 Selectivity Ratio (MID^a: MID^b)” value (Melanoma subpanel; Melanoma subpanel) was 0.63 and the “TGI Selectivity Ratio (MID^c: MID^d)” value (Melanoma subpanel; Melanoma subpanel) was 0.58. For the same compound, the TGI Subpanel MID^d (Melanoma subpanel; Melanoma subpanel average) was 36.5 µM, the GI50 ([1]; Homo sapiens, Non-Small-Cell Lung Cancer subpanel average, read-out: GI50 Subpanel MID^b) was 2.74 µM and the “GI50 Selectivity Ratio (MID^a: MID^b)” value [1, 5] was 0.87. The “TGI Selectivity Ratio (MID^c: MID^d)” value [1, 5] was 1.31, the TGI Subpanel MID^d ([1]; Non-Small-Cell Lung Cancer subpanel average) was 16.1 µM and the GI50 (Ovarian Cancer subpanel; Ovarian Cancer subpanel average, read-out: GI50 Subpanel MID^b) was 2.59 µM. The GI50 (Ovarian Cancer subpanel; ovarian cancer subpanel, read-out: GI50 values range, subpanel) was 1.66 to 3.55 µM, the “GI50 Selectivity Ratio (MID^a: MID^b)” value (Ovarian Cancer subpanel; Ovarian Cancer subpanel) was 0.92 and the “TGI Selectivity Ratio (MID^c: MID^d)” value (Ovarian Cancer subpanel; Ovarian Cancer subpanel) was 1.14. For the same compound, the TGI Subpanel MID^d (Ovarian Cancer subpanel; Ovarian Cancer subpanel average) was 18.5 µM, the GI50 (Prostate Cancer subpanel; Homo sapiens, Prostate Cancer subpanel average, read-out: GI50 Subpanel MID^b) was 3.41 µM and the “GI50 Selectivity Ratio (MID^a: MID^b)” value (Prostate Cancer subpanel; Prostate Cancer subpanel) was 0.69. For the same compound, the “TGI Selectivity Ratio (MID^c: MID^d)” value (Prostate Cancer subpanel; Prostate Cancer subpanel) was 5.89, the TGI Subpanel MID^d (Prostate Cancer subpanel; Prostate Cancer subpanel average) was 3.58 µM and the GI50 (Renal Cancer subpanel; Homo sapiens, Renal Cancer subpanel average, read-out: GI50 Subpanel MID^b) was 1.86 µM. The “GI50 Selectivity Ratio (MID^a: MID^b)” value (Renal Cancer subpanel; Renal Cancer subpanel) was 1.28, the “TGI Selectivity Ratio (MID^c: MID^d)” value (Renal Cancer subpanel; Renal Cancer subpanel) was 1.27 and the TGI Subpanel MID^d (Renal Cancer subpanel; Renal Cancer subpanel average) was 16.6 µM. For the same compound, the GI50 (OVCAR-3; Homo sapiens, OVCAR-3, read-out: GI50 Concentration/Cell Line) was 1.8 µM, the CC50 (OVCAR-3; Homo sapiens, OVCAR-3, read-out: LC50) was 7.23 µM and the “TGI Concentration/Cell Line” value (OVCAR-3; Ovarian Cancer OVCAR-3) was 3.61 µM.
